Measured values published in PubChem BioAssay AID1963437 (Molecular Pharmacology Branch, DTP, NCI, 2024).
pIC50: −log10 of the molar value.

Tested on: OVCAR-8 complex spheroid, growth inhibition
Test: Anticancer human tumor OVCAR-8 cell line growth inhibition [Asc];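 also: spheroids exposed to agents for 7 days before readout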;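 as to viability, T/C: percent viability relative to DMSO vehicle wells taken as 100%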
Settings: for pIC50: curve of first compound; for viability, T/C: stronger effect = lower value
Procedure, shortened: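 Tumor cells were grown as complex spheroids with human endothelial cells (HUVEC) and human mesenchymal stem cells as stroma. Agents were tested alone and in combination, in half-log steps down from the clinical Cmax, or from 10 microM where Cmax was unknown.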

For `Cc1nc(N2CCC3(CC2)COC(C)C3N)c(CO)nc1Sc1ccnc(N)c1Cl` (configuration not stated) + CCN1C(C(=O)NC23CCC(C(=O)O)(CC2)CC3)C(c2cccc(Cl)c2F)C2(C(=O)Nc3cc(Cl)ccc32)C12CCCCC2, the pIC50 (second compound 0.00949 µM) was less than 5.52, the pIC50 (second compound 0.03 µM) was less than 5.52 and the pIC50 (second compound 0.0949 µM) was less than 5.52. It also gave a pIC50 (second compound 0.3 µM) of less than 5.52, a pIC50 (second compound 0.949 µM) of less than 5.52 and a pIC50 (second compound 3 µM) of less than 5.52. For the same compound, the viability, T/C (second compound 0.00949 µM, first compound 0.00949 µM) was 101%, the viability, T/C (second compound 0.00949 µM, first compound 0.03 µM) was 122% and the viability, T/C (second compound 0.00949 µM, first compound 0.0949 µM) was 152%. It also gave a viability, T/C (second compound 0.00949 µM, first compound 0.3 µM) of 216%, a viability, T/C (second compound 0.00949 µM, first compound 0.949 µM) of 263% and a viability, T/C (second compound 0.00949 µM, first compound 3 µM) of 209%. It also gave a viability, T/C (second compound 0.03 µM, first compound 0.00949 µM) of 108%, a viability, T/C (second compound 0.03 µM, first compound 0.03 µM) of 139% and a viability, T/C (second compound 0.03 µM, first compound 0.0949 µM) of 142%. It also gave a viability, T/C (second compound 0.03 µM, first compound 0.3 µM) of 204%, a viability, T/C (second compound 0.03 µM, first compound 0.949 µM) of 241% and a viability, T/C (second compound 0.03 µM, first compound 3 µM) of 221%. It also gave a viability, T/C (second compound 0.0949 µM, first compound 0.00949 µM) of 103%, a viability, T/C (second compound 0.0949 µM, first compound 0.03 µM) of 117% and a viability, T/C (second compound 0.0949 µM, first compound 0.0949 µM) of 154%. It also gave a viability, T/C (second compound 0.0949 µM, first compound 0.3 µM) of 200%, a viability, T/C (second compound 0.0949 µM, first compound 0.949 µM) of 244% and a viability, T/C (second compound 0.0949 µM, first compound 3 µM) of 228%. It also gave a viability, T/C (second compound 0.3 µM, first compound 0.00949 µM) of 115%, a viability, T/C (second compound 0.3 µM, first compound 0.03 µM) of 126% and a viability, T/C (second compound 0.3 µM, first compound 0.0949 µM) of 153%. The viability, T/C (second compound 0.3 µM, first compound 0.3 µM) was 221%, the viability, T/C (second compound 0.3 µM, first compound 0.949 µM) was 251% and the viability, T/C (second compound 0.3 µM, first compound 3 µM) was 232%. The viability, T/C (second compound 0.949 µM, first compound 0.00949 µM) was 106%, the viability, T/C (second compound 0.949 µM, first compound 0.03 µM) was 101% and the viability, T/C (second compound 0.949 µM, first compound 0.0949 µM) was 175%. For the same compound, the viability, T/C (second compound 0.949 µM, first compound 0.3 µM) was 229%, the viability, T/C (second compound 0.949 µM, first compound 0.949 µM) was 223% and the viability, T/C (second compound 0.949 µM, first compound 3 µM) was 214%. It also gave a viability, T/C (second compound 3 µM, first compound 0.00949 µM) of 125%, a viability, T/C (second compound 3 µM, first compound 0.03 µM) of 140% and a viability, T/C (second compound 3 µM, first compound 0.0949 µM) of 171%. It also gave a viability, T/C (second compound 3 µM, first compound 0.3 µM) of 214%, a viability, T/C (second compound 3 µM, first compound 0.949 µM) of 192% and a viability, T/C (second compound 3 µM, first compound 3 µM) of 169%.
